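48-hour exposure; five concentrations; linearly interpolated endpoints. The concentration for 50% growth inhibition is given as GI50. TGI: total growth inhibition.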
Key:
Test in all cases: DTP human tumour cell line panel, 48 h
A549 NSCLC = test system: A549 NSCLC
SW-620 colon = test system: SW-620 colon
SF-268 CNS = test system: SF-268 CNS
SK-MEL-5 melanoma = test system: SK-MEL-5 melanoma
KM12 colon = test system: KM12 colon
786-0 renal = test system: 786-0 renal
HL-60(TB) leukemia = test system: HL-60(TB) leukemia
A498 renal = test system: A498 renal
UACC-257 melanoma = test system: UACC-257 melanoma
COLO 205 colon = test system: COLO 205 colon

Row | SMILES | TGI (A549 NSCLC) [µM] | TGI (SW-620 colon) [µM] | TGI (SF-268 CNS) [µM] | TGI (SK-MEL-5 melanoma) [µM] | TGI (KM12 colon) [µM] | TGI (786-0 renal) [µM] | TGI (HL-60(TB) leukemia) [µM] | TGI (A498 renal) [µM] | TGI (UACC-257 melanoma) [µM] | TGI (COLO 205 colon) [µM] | GI50 (HL-60(TB) leukemia) [µM]
1 | Cc1nccn1S(=O)(=O)c1ccc(Br)cc1Br | > 100 | > 100 | > 100 | 43.9 | 88.7 | > 100 | 51.5 | > 100 | > 100 | 33.4 | –
2 | Cc1cc(N=Cc2c(CO)cnc(C)c2O)c(N=Cc2c(CO)cnc(C)c2O)cc1C.[Zn] | > 100 | > 100 | > 100 | > 100 | > 100 | > 100 | > 100 | > 100 | > 100 | > 100 | > 100
3 | CC(=O)NC1=C(C)C(=O)c2c(nc3n2CCC3O)C1=O (stereo unspecified) | > 100 | > 100 | > 83.3 | > 100 | > 100 | > 100 | 44.2 | > 100 | > 59.9 | > 100 | –
4 | COC(=O)/C=C\C(C#N)(C#N)N=Cc1ccc(C)s1 | 33.6 | 2.14 | 19.1 | 19.7 | 31.8 | 3.2 | 5.16 | 34.7 | 7.71 | 2.93 | –
5 | O=C(NCCCCNCCCNC(=O)c1ccccc1)c1ccccc1 | > 100 | > 100 | > 100 | > 100 | > 100 | > 100 | > 100 | > 100 | > 100 | > 100 | –
6 | CN(C)CCOC(=O)c1ccc(N)cc1 | > 100 | > 100 | > 100 | > 100 | > 100 | > 100 | 83.7 | > 100 | 54 | > 100 | –
7 | O=c1[nH]c2ccccc2nc1/C=C(\O)C(F)F | > 100 | > 100 | > 100 | > 100 | > 100 | > 100 | > 100 | > 100 | > 100 | > 100 | –
8 | COC(=O)c1ccc(CCc2cc(O)ccc2O)cc1 | > 61.3 | 29.7 | > 36.6 | 25.7 | 27.5 | 18.4 | 5.96 | > 96.7 | 32.8 | 54.5 | –
9 | CCOP(=O)(OCC)/C(=C\N1C(=O)CC(=O)NC1=S)C(=O)OC | > 100 | > 100 | > 100 | > 100 | > 100 | > 100 | > 100 | > 100 | > 100 | > 100 | –
10 | O=c1c2ccccc2n2nnc3ccc(NCCCNCCNCCCNc4ccc5nnn6c7ccccc7c(=O)c4c56)c1c32 | 20.8 | > 22.6 | > 26.6 | > 50 | > 22.5 | 21.3 | 23.5 | > 37 | > 50 | > 50 | –
11 | COc1ccc2c(c1)nc1n2C(N)=Nc2ccccc2S1 | > 100 | > 100 | > 100 | > 61.9 | 34.2 | > 34.1 | 6.95 | > 88.4 | > 100 | > 100 | –
12 | Cn1c(-c2ccc[se]2)ccc1-c1ccc(CO)[se]1 | > 100 | > 100 | > 100 | > 100 | > 100 | > 100 | > 100 | 0.14 | 0.102 | 6.01 | –
13 | COc1cc(/C=C2\N=C(c3ccccc3)N(/N=C3\C(=O)Nc4ccccc43)C2=O)cc(OC)c1OC | > 100 | > 100 | > 100 | > 100 | > 100 | > 100 | > 100 | > 100 | > 100 | > 100 | –
14 | CC(NC1=NCCO1)c1cccc([N+](=O)[O-])c1 (stereo unspecified) | > 100 | > 100 | > 100 | > 100 | > 100 | > 100 | > 100 | > 100 | > 100 | > 100 | –
15 | N#CC(C#N)=Cc1c(O)ccc2ccccc12 | 38 | 34.5 | 33.1 | 26.2 | 33.3 | 33 | 15.7 | 31.1 | 32.6 | 44.5 | –
16 | CC(=O)NC1C(OCc2ccccc2)OC(CO)C(O)C1OCC(=O)NC(C)C(=O)NC(CCC(=O)NCCCCCNc1c2ccccc2nc2cccc([N+](=O)[O-])c12)C(N)=O (stereo unspecified) | 0.00142 | 0.000315 | < 0.0001 | 0.00124 | < 0.0001 | 0.000206 | 0.0455 | < 0.0001 | 0.00332 | < 0.0001 | –
17 | O=C1C=C2CO[C@H]3OC[C@H](O)[C@@H]1[C@@H]23 | > 100 | > 100 | > 100 | > 100 | > 100 | > 100 | 76.1 | > 100 | 86.4 | 30 | –
18 | Cc1ccc(-n2c(O)c3c(N)n[nH]c3c(C#N)c2=O)cc1 | > 100 | > 100 | > 100 | > 100 | > 100 | > 100 | > 100 | > 100 | > 100 | > 100 | –
19 | C=C1C(=O)O[C@H]2C/C(C)=C/CC/C(C)=C/CC[C@@](C)(O)[C@@H](I)C[C@@H]12 | 24.8 | 19.8 | 31.9 | 28.2 | 18.5 | 10.6 | 14.6 | 32 | 25.5 | 24.9 | –
20 | O=C(OCCN1CCCCC1)C(c1ccccc1)C1(O)CCSCC1 (stereo unspecified) | > 100 | > 100 | > 100 | > 100 | > 100 | > 100 | > 100 | > 100 | > 100 | > 100 | –

Source: PubChem BioAssay (NCI)
